In patent publication US6878522B2, “Methods for the identification of compounds useful for the treatment of disease states mediated by prostaglandin D2” (priority 2000, dated 2005):

How the values were obtained:
CRTH2 [1] = target: T1, CRTH2 (Homo sapiens, UniProt Q9Y5Y4); assay: Competition with 3H-PGD2 binding at the CRTH2 receptor (Examples 6-9); conditions: from IC50 at CRTH2 and at DP
T1 construct: prolactin (prolac) signal peptide (N); expressed in transfected cells; host or cells: 300-19 cells (transformed murine pre-B lymphocytes)
T1 sequence (Q9Y5Y4 1-395): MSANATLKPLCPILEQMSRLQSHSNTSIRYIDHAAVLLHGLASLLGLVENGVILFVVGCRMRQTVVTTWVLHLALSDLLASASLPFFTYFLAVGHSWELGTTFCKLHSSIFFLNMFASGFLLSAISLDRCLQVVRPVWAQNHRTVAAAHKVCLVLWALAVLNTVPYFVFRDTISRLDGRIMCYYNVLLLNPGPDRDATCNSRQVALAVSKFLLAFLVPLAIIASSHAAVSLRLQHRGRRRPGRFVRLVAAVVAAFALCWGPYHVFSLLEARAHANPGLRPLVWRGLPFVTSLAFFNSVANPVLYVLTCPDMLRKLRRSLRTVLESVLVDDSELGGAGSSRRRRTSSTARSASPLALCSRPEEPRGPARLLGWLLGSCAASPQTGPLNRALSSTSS
Method: To directly determine the binding affinity of CRTH2 for PGD2, the following binding assay was used. Transfected and parental 300-19 cells were washed twice at room temperature with assay buffer, and resuspended at a concentration of 2×10^7 cells/ml. Using a 96-well U-bottom polypropylene plate (Costar, Corning Inc., Acton, Mass.), the assay was set up as follows: 50 μl of vehicle (0.3% DMSO in assay buffer, total wells) or of […] cold PGD2 (NS wells); 50 μl cells (2×10^7 cells/ml for 10^6 cells per well); 50 μl 6 nM [3H]-PGD2. The plate was allowed to incubate for 20 min at RT before centrifugation (2800 rpm, Sorval RT6000, 5 min, 4° C.). The plate was harvested (Packard Unifilter plate GF/C, previously soaked in 3% PEI for at least 1 hr) with cold assay buffer using a Packard Filtermate Cell Harvester (6×150 μl buffer wash per well). The filterplate was dried overnight. After the addition of 50 μl scintillation fluid (Packard Microscint 0), the plate was counted in a Packard Topcount scintillation counter (1 min per well). […] The solutions of labeled PGD2 and unlabeled “cold” PGD2 were prepared as follows: 10 μl of [^3H]-PGD2 (Amersham lot # TRK734 162 Ci/mmol, 0.1 Ci/ml in methanol: water: acetonitrile (3:2:1), 617 nM) per ml assay buffer was used to prepare a solution of [^3H]-PGD2 at a concentration of 6 nM (50 μl/well for final conc. of 2 nM); cold PGD2 (Biomol #PG-005, lot # P4653) was dissolved in DMSO for a stock of 10 mM (stored at −20° C.). The 10 mM stock was diluted 3:1000 to obtain a final concentration of […] (50 μl/well for final conc. of […]). Assay buffer: Hank's balanced saline supplemented with HEPES and sodium bicarbonate: 100 ml/L of 10× Hank's Balanced saline (with Ca^+2, Mg^+2); 10 ml/L of 1M HEPES; 4.7 ml/L of 7.5% Sodium Bicarbonate.
In the assay, the capacity of each D-ring compound to compete with binding of ^3H-PGD2 was measured at both the CRTH2 and DP receptors, and an IC50 value (in μM) was determined. […] The binding assay procedure of Example 1 was used. Preferably, the ratio of IC50 at CRTH2 to IC50 at DP is less than about twenty, and more preferably is […].

[2] = system: isolated human eosinophils; assay: [Ca2+]i mobilization in isolated human eosinophils; type: cell-based
Description: Calcium mobilization can be detected and measured by flow cytometry, and by labeling with fluorescent dyes that are trapped intracellularly. […] The ratio of fluorescence produced by the calcium-bound dye to that produce by the unbound dye is used to estimate the intracellular calcium concentration. In one embodiment, for example, the following method can be used. Cells that express CRTH2 are collected, and resuspended in fresh media at ˜2×10^5/ml the day before performing the calcium flux assay. Cells are incubated at 37° C. for not longer than 20-30 minutes, and then spun down and resuspended in 50 ml fresh PTI buffer (Hank's Buffer, pH 7.2-7.4; 10 mM Hepes; 1.6 mM CaCl2) containing Indo-1 AM, pre-warmed to 37° C., at a concentration of 10 million per ml. Cells are excited, and fluorescence is measured using a fluorimeter (Photon Technology Corporation, International). After the readout has stabilized, the time axis is reset, and PGD2 is added at a specific time point (e.g., 20 seconds). After response, the following reagents are added to the cuvette, to release and chelate total calcium, in the following order: 20 μl of 18% Triton X-100, 20 μl of 3M Tris, pH 8.5, and 20 μl of 0.5 M EGTA, pH 8.5. The experiment is repeated in the presence and the absence of a test compound. […] Therefore, in the presence of an […] test compound, the EC50 would be expected to be higher than this value, whereas in the presence of an agonist test compound, the EC50 would be expected to decrease.

[3] = system: isolated human eosinophils; assay: Reactive oxygen species (ROS) release in isolated human eosinophils; type: cell-based
Method: Another secondary assay is the reactive oxygen species release assay. One measure of PGD2-induced activation of CRTH2 cells, such as eosinophils, is the intracellular release of reactive oxygen species. This can be tested in a reactive oxygen species release assay, or ROS, using lucigenin-dependent chemiluminescence to measure reactive oxygen species release. In this method, freshly isolated eosinophils are prepared, by standard methods, and resuspended at concentration 2-4×10^6 cells/ml in (RPMI; 10 mM HEPES; 1× Pen/Strep; 0.5% FBS) at room temperature. Immediately prior to use, 1 ml of cell suspension is added to 9 ml of buffer, prewarmed to 37° C. for 15 minutes, and added 0.5 ml of 200 mM Lucigenin.
Test compounds (made as 10,000× DMSO stocks) are diluted in buffer with DMSO (1.5 ul of DMSO/2.5 ml Buffer) and 25 μl/well added to white 96-well culture plate and placed in a 37° C. incubator. Isolated cells (held at room temperature) are diluted with room temperature buffer to 2-4×10^6 cells/ml, and incubated in a water bath at 37° C. for 15 minutes. At 15 minutes, 0.5 ml 200 mM lucigenin (bis-N-Methylacridinium Nitrate; Sigma, St. Louis, Mo.) is added to 10 ml of the cell suspension, mixed, and 100 μl/well is added to the prewarmed microtiter plate. The plate is returned to 37° C. for 5 minutes, at which time 25 μl of stimulus is added) The plate is read in the luminometer for 8 cycles. The luminescence of test compounds can be tested in the presence of PGD2, relative to a control sample containing PGD2 alone. A compound that interferes with the ability of PGD2 to result in intracellular reactive oxygen species release in CRTH2 cells, is a candidate for a CRTH2 antagonist.

[4] = system: human whole blood eosinophil; assay: Human whole blood eosinophil actin-polymerization response; type: cell-based; conditions: read-out: Actin-polymer EC50
Description: Yet another secondary screening assay is an actin polymerization assay. Another biological effect of the interaction of PGD2 with CRTH2 is actin polymerization. Thus, an actin polymerization assay may be used as a secondary screen to characterize the activity of a compound isolated in the primary screening assays of the invention. In one embodiment, actin polymerization may be assayed using an actin-specific fluorescent label, nitrobenzoxadiazole (NBD)-phallacidin, which binds polymerized actin fiber. In a specific embodiment, the assay may be performed as follows: cell preparations are resuspended at 5-10×10^6 cells/ml in RPMI 1640 plus 10 mM HEPES, 100/10 Pen/Strep, and 0.5% FCS. The cell suspension is aliquoted (100 μL per well) into a 96-well U-bottom polypropylene microtiter plate. 50 ul of the appropriate stimulus (PGD2 or test compound, or both PGD2 and test compound) is added using an 8-channel pipette followed exactly 25 seconds later by 50 ul of a stopping solution which contains lysophosphotidylcholine (0.5 mg/ml), Hank's balanced salt solution (100 ul 10×), 16% formaldehyde (800 ul), and 6.6 uM NBD-phallacidin in MEOH (100 ul). The plate is allowed to sit at room temperature for 15 minutes. The plate is then centrifuged at 1000 rpm for 5 minutes, the supernatants flicked off and the cell pellets resuspended in 250 ul PBS plus 2%FCS and 0.2% sodium azide. Each sample is then read on a FACS Caliber instrument. Cells are gated using the forward scatter/side scatter data in the lymphocyte area. Responses are measured by the change in median FL-1 fluorescence between vehicle treated cells and stimulus treated cells. Test compounds can be assayed in the presence and absence of PGD2, and compared to a sample containing PGD2 alone. A compound that reduces PGD2-induced actin polymerization of CRTH2 cells is identified as a candidated CRTH2 antagonist.

[5] = system: isolated human eosinophils; assay: Chemotaxis of isolated human eosinophils; type: cell-based
Method: In a specific example of this method, a competitive assay is performed to test compounds for their ability to interrupt the attraction of CRTH2 cells to PGD2. In this method, test compounds are diluted into the bottom wells of the Boyden chemotaxis chamber. A constant amount of PGD2 is also added to this dilution series, at a concentration known to have a chemotactic effect on CRTH2 cells. As a control, at least one aliquot contains only PGD2. Cells expressing CRTH2 are resuspended at 3-3.5×10^6 cells/ml in RPMI 1640 supplemented with 10 mM HEPES and 1 mg/ml bovine serum albumin (Sigma, St. Louis, Mo.), and placed into the upper wells of the chamber. The chambers are incubated for 90-120 minutes at 37° C. in a humidified CO2 incubator. After the incubation period, the number of migrating cells on the lower surface of the membrane filter is counted using light microscopy. The contribution of the test compound to the chemotactic activity of PGD2 is measured by comparing the chemotactic activity of the aliquots containing only PGD2 with the activity of aliquots containing test compound and PGD2. If addition of the test compound to the PGD2 solution results in a […] in the number of cells detected on the lower surface of the membrane relative to the number of cells detected using a solution containing only PGD2, then there is identified an antagonist of PGD2 induction of chemotactic activity of cells expressing CRTH2. In contrast, if the addition of the test compound to the PGD2 solution results in a […] in the number of cells detected on the lower surface of the membrane (relative to the number of cells detected using a solution containing only PGD2), then an […] of PGD2 induction of chemotactic activity of cells expressing CRTH2 is identified.
The chemotactic response of human T lymphocytes to PGD2, murine MDC and murine mSDF was also assayed. Chemotaxis was determined using a 48-well Boyden chamber (Neuroprobe, Cabin John, Md.), and 3.0 μm polycarbonate filters. Cells were resuspended (3-3.5×10^6 cells/ml) in RPMI 1640 supplemented with 10 mM HEPES and 1 mg/ml bovine serum albumin (Sigma, St. Louis, Mo.), and placed into the upper wells of the chamber. The compound to be tested was placed in the lower wells. The chambers were incubated for 90-120 minutes at 37° C. in a humidified CO2 incubator. At the end of the incubation period, the number of migrating cells on the filter (expressed per high power field) were enumerated microscopically. […] In FIG. 4, the chemotactic response of human basophils to PGD2 and C5a is shown.

CRTH2 [6] = target: T1, CRTH2; assay: [Ca2+]i mobilization assay in 300-19 cells expressing CRTH2; type: cell-based; conditions: CRTH2 stable cell line (300-19 transfectants)
Description: Using 300-19 cells (transformed pre-B lymphocytes) expressing CRTH2, a number of mast cell and non-mast cell-derived mediators were screened in a [Ca^2+]i mobilization assay. […]

| Compound | selectivity for the CRTH2 receptor (in comparison with DP) (CRTH2 [1]) | EC50 [2] [nM] | EC50 [3] [nM] | EC50 [4] [nM] | EC50 [5] [nM] | EC50 (CRTH2 [6]) [nM] |
| --- | --- | --- | --- | --- | --- | --- |
| CCCCCC(=O)CCC1C(=O)CC(O)C1C/C=C\CCCC(=O)O (stereo not drawn) [13,14-dihydro-15-keto PGD2] | particularly selective for CRTH2 | – | – | – | – | – |
| CCCCC[C@@](C)(O)/C=C/[C@H]1C(=O)C[C@H](O)[C@@H]1C/C=C\CCCC(=O)O [15(R)15-methyl PGD2] | particularly selective for CRTH2 | – | – | – | – | – |
| CCCCC/C=C\C=C1\C(=O)CC(O)C1C/C=C\CCCC(=O)O (stereo not drawn) [15-deoxy-delta 12, 14, PGD2] | particularly selective for CRTH2 | – | – | – | – | – |
| CCCCC[C@H](O)/C=C/[C@@H]1[C@@H](C/C=C\CCCC(=O)O)[C@H]2CO[C@@H]1C2 [Compound U-46619] | – | > 1000 | > 100 | – | – | – |
| CCCCC[C@H](O)/C=C/[C@@H]1[C@@H](C/C=C\CCCC(=O)O)[C@@H](O)C[C@@H]1O [Pa, 11b-PGF2] | – | – | > 100 | > 1000 | > 100 | – |
| PGJ2 | – | 130 | 75 | 1800 | > 100 | 200 |

The next lines start with the values.

| selectivity for the CRTH2 receptor (in comparison with DP) (CRTH2 [1]) | EC50 [2] [nM] | EC50 [3] [nM] | EC50 [4] [nM] | EC50 [5] [nM] | EC50 (CRTH2 [6]) [nM] | Compound |
| --- | --- | --- | --- | --- | --- | --- |
| – | > 1000 | > 1000 | > 100000 | > 100 | – | CCCCC[C@H](O)/C=C/[C@@H]1[C@H]2C/C(=C/CCCC(=O)O)O[C@H]2C[C@H]1O [PG12] |
| – | > 1000 | > 100 | > 100000 | > 100 | – | CCCCC[C@H](O)/C=C/[C@H]1[C@H](O)CC(=O)[C@@H]1CCCCCCC(=O)O [PGE1] |
